Assay results published in patent US9796733B2, “Imidazo-pyrazine derivatives useful as soluble guanylate cyclase activators” (Merck Sharp & Dohme Corp., priority 2014, dated 2017).

Key:
[1] = tested on: Spontaneously hypertensive rats (SHR); test: Acute efficacy in spontaneously hypertensive rats (SHR): telemetry blood pressure lowering after a single oral dose; assay type: in vivo, rat
Outline: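 Male SHR carrying aortic telemetry implants (14-day recovery) received a single oral gavage of compound or vehicle (10% transcutol/20% Cremophor/70% water). Conscious blood pressure was sampled 30 s every 10 min and averaged hourly; change was taken against the prior-day vehicle baseline, reported as maximum peak SBP decrease at a given PO dose (mpk).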

sGC α1/β1 heterodimer = biological target: T1, sGC α1/β1 heterodimer (Homo sapiens, UniProt Q02108+Q02153); test: Cell-based sGC functional assay (CASA assay): cGMP generation in CHO-K1/sGC cells, HTRF detection; conditions: for Emax: CHO-K1, percent activation relative to standard Compound A in CHO-K1/sGC cells, read-out: % Act.; for EC50: inflection point (IP) of cGMP generation in CHO-K1/sGC cells, 4P fit, activity expressed as percentage of Compound A
T1 construct: expressed in transfected cells; host or cells: CHO-K1 (clone #7, CHO-K1/sGC)
T1 sequence (Q02108 1-690): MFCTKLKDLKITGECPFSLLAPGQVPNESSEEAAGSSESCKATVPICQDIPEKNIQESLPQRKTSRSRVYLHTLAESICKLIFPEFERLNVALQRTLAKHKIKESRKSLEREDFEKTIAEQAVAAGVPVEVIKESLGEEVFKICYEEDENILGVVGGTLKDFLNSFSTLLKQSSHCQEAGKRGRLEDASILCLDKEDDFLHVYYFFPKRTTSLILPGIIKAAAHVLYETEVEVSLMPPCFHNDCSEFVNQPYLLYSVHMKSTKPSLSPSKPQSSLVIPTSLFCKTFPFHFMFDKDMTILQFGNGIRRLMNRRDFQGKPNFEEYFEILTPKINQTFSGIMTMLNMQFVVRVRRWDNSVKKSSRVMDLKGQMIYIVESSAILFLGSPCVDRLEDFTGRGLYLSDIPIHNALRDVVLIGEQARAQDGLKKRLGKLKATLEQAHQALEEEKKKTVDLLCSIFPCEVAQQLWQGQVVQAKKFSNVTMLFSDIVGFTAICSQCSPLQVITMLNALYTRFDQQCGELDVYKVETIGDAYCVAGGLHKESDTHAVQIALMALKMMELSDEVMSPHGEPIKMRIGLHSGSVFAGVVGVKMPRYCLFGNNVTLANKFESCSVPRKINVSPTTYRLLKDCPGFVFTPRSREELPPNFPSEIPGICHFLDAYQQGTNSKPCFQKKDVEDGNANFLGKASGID
T1 sequence (Q02153 1-619): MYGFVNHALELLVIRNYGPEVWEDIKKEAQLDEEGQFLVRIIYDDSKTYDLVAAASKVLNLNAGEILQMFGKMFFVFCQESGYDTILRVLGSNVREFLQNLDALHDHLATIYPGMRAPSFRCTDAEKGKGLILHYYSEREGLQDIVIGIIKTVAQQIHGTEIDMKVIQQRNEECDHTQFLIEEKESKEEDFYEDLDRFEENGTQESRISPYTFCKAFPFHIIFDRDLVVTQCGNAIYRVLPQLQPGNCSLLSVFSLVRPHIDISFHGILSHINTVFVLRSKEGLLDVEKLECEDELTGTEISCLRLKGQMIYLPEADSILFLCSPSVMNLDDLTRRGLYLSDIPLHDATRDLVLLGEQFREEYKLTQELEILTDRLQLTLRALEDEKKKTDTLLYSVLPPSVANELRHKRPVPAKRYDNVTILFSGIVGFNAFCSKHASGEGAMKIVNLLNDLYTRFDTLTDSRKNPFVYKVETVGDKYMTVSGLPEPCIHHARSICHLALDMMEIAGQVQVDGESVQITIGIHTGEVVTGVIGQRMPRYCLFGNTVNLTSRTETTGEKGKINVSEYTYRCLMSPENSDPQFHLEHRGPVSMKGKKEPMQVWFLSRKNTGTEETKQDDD
Outline: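 Stable CHO-K1/sGC cells in EBSS buffer with 5 mM MgCl2, 0.05% BSA and 0.5 mM IBMX were incubated with compound (2.5% DMSO final) ±1 μM DETA-NO for 1 hr at 37° C. cGMP was measured by HTRF. Activation is expressed as % of reference HDA Compound A maximum, with IP and max fold induction from a 4P fit.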

Structure (SMILES) | Emax (sGC α1/β1 heterodimer) [%] | EC50 (sGC α1/β1 heterodimer) [nM] | Maximum peak decrease of systolic blood pressure (SBP) in SHR, Cat. ([1]; P.O. 0.3 mpk) | Maximum peak decrease of systolic blood pressure (SBP) in SHR, Cat. ([1]; P.O. 1.0 mpk) | Maximum peak decrease of systolic blood pressure (SBP) in SHR, Cat. ([1]; P.O. 3.0 mpk)
CCCc1nc(-c2nc(N)c3c(n2)NC(=O)C3(C)c2ccc(Cl)cn2)cn2ccnc12 (stereo not drawn) [Example 129A, 4-amino-5-(5-chloropyridin-2-yl)-5-methyl-2-(8-propylimidazo[1,2-a]pyrazin-6-yl)-5H-pyrrolo[2,3-d]pyrimidin-6(7H)-one] | 94 | 107 |  | B (Category B=SBP in SHRs 20-40 mmHg) | 
Nc1nc(-c2cn3ccnc3c(CCC(F)(F)F)n2)nc2c1C(c1ccc(F)cc1)(C1CC1)C(=O)N2 (stereo not drawn) [Example 194B, 4-amino-5-cyclopropyl-5-(4-fluorophenyl)-2-(8-(3,3,3-trifluoropropyl)imidazo[1,2-a]pyrazin-6-yl)-5H-pyrrolo[2,3-d]pyrimidin-6(7H)-one] | 116 | 268 |  |  | C (Category C=SBP in SHRs>40 mmHg)
CC1(c2ccc(C(F)(F)F)cc2)C(=O)Nc2nc(-c3cn4ccnc4c(CCC(F)(F)F)n3)nc(N)c21 (stereo not drawn) [Example 189B, 4-amino-5-methyl-5-(4-(trifluoromethyl)phenyl)-2-(8-(3,3,3-trifluoropropyl)imidazo[1,2-a]pyrazin-6-yl)-5H-pyrrolo[2,3-d]pyrimidin-6(7H)-one] | 143 | 211 |  |  | B (Category B=SBP in SHRs 20-40 mmHg)
CC1(c2ccc(Cl)cn2)C(=O)Nc2nc(-c3cn4ccnc4c(CCC(F)(F)C(F)(F)F)n3)nc(N)c21 (stereo not drawn) [Example 228A, 4-amino-5-(5-chloropyridin-2-yl)-5-methyl-2-(8-(3,3,4,4,4-pentafluorobutyl)imidazo [1,2-a]pyrazin-6-yl)-5H-pyrrolo[2,3-d]pyrimidin-6(7H)-one] | 108 | 20 | B (Category B=SBP in SHRs 20-40 mmHg) |  | 
CC1(c2ccc(Br)cc2)C(=O)Nc2nc(-c3cn4ccnc4cn3)nc(N)c21 (stereo not drawn) [Example 135A, 4-amino-5-(4-bromophenyl)-2-(imidazo[1,2-a]pyrazin-6-yl)-5-methyl-5H-pyrrolo[2,3-d]pyrimidin-6(7H)-one] | 148 | 57 |  | B (Category B=SBP in SHRs 20-40 mmHg) | 
CC1(c2ccc(OC(F)(F)F)cc2)C(=O)Nc2nc(-c3cn4ccnc4c(CCCC(F)(F)F)n3)nc(N)c21 (stereo not drawn) [Example 207B, 4-amino-5-methyl-2-(8-(4,4,4-trifluorobutyl)imidazo[1,2-a]pyrazin-6-yl)-5-(4-(trifluoromethoxy)phenyl)-5H-pyrrolo[2,3-d]pyrimidin-6(7H)-one] | 121 | 44 | B (Category B=SBP in SHRs 20-40 mmHg) |  | 
CC1(c2ccc(Cl)cn2)C(=O)Nc2nc(-c3cn4ccnc4c(CCCC(F)(F)F)n3)nc(N)c21 (stereo not drawn) [Example 208A, 4-amino-5-(5-chloropyridin-2-yl)-5-methyl-2-(8-(4,4,4-trifluorobutyl)imidazo[1,2-a]pyrazin-6-yl)-5H-pyrrolo[2,3-d]pyrimidin-6(7H)-one] | 88 | 36 | C (Category C=SBP in SHRs>40 mmHg) |  | 
Nc1nc(-c2cn3ccnc3c(CCCC(F)(F)F)n2)nc2c1C(c1ccc(Cl)cc1)(C1CC1)C(=O)N2 (stereo not drawn) [Example 316B, 4-amino-5-(4-chlorophenyl)-5-cyclopropyl-2-(8-(4,4,4-trifluorobutyl)imidazo[1,2-a]pyrazin-6-yl)-5H-pyrrolo[2,3-d]pyrimidin-6(7H)-one] | 156 | 29 | B (Category B=SBP in SHRs 20-40 mmHg) |  | 

Continued by falling EC50 (sGC α1/β1 heterodimer), values first:

Emax (sGC α1/β1 heterodimer) [%] | EC50 (sGC α1/β1 heterodimer) [nM] | Structure (SMILES) | Maximum peak decrease of systolic blood pressure (SBP) in SHR, Cat. ([1]; P.O. 0.3 mpk) | Maximum peak decrease of systolic blood pressure (SBP) in SHR, Cat. ([1]; P.O. 1.0 mpk) | Maximum peak decrease of systolic blood pressure (SBP) in SHR, Cat. ([1]; P.O. 3.0 mpk)
111 | 355 | CC1(c2ccc(F)c(Cl)c2)C(=O)Nc2nc(-c3cn4ccnc4c(CCC(F)(F)F)n3)nc(N)c21 (stereo not drawn) [Example 193B, 4-amino-5-(3-chloro-4-fluorophenyl)-5-methyl-2-(8-(3,3,3-trifluoropropyl)imidazo[1,2-a]pyrazin-6-yl)-5H-pyrrolo[2,3-d]pyrimidin-6(7H)-one] |  |  | B (Category B=SBP in SHRs 20-40 mmHg)
111 | 278 | CCCc1nc(-c2nc(N)c3c(n2)NC(=O)C3(c2ccc(F)c(F)c2)C2CC2)cn2ccnc12 (stereo not drawn) [Example 334A, 4-amino-5-cyclopropyl-5-(3,4-difluorophenyl)-2-(8-propylimidazo[1,2-a]pyrazin-6-yl)-5H-pyrrolo[2,3-d]pyrimidin-6(7H)-one] |  |  | A (Category A=SBP in SHRs<20 mmHg)
92 | 247 | CC1(c2ccc(OC(F)F)cn2)C(=O)Nc2nc(-c3cn4ccnc4c(CCCC(F)(F)F)n3)nc(N)c21 (stereo not drawn) [Example 214A, 4-amino-5-(5-(difluoromethoxy)pyridin-2-yl)-5-methyl-2-(8-(4,4,4-trifluorobutyl)imidazo[1,2-a]pyrazin-6-yl)-5H-pyrrolo[2,3-d]pyrimidin-6(7H)-one] |  | B (Category B=SBP in SHRs 20-40 mmHg) | 
119 | 82 | CC1(c2ccc(Cl)cc2)C(=O)Nc2nc(-c3cn4ccnc4c(C4CCC4)n3)nc(N)c21 (stereo not drawn) [Example 15A, 4-amino-5-(4-chlorophenyl)-2-(8-cyclobutylimidazo[1,2-a]pyrazin-6-yl)-5-methyl-5H-pyrrolo[2,3-d]pyrimidin-6(7H)-one] |  | C (Category C=SBP in SHRs>40 mmHg) | 
122 | 32 | CC1(c2ccc(F)cc2)C(=O)Nc2nc(-c3cn4ccnc4c(Cc4cccc(F)c4)n3)nc(N)c21 (single isomer, unassigned) [Example 90A, 4-amino-2-(8-(3-fluorobenzyl)imidazo[1,2-a]pyrazin-6-yl)-5-(4-fluorophenyl)-5-methyl-5H-pyrrolo[2,3-d]pyrimidin-6(7H)-one] | C (Category C=SBP in SHRs>40 mmHg) |  | 
92 | 29 | CN1CCN(c2nc(-c3cn4ccnc4c(CCC(F)(F)C(F)(F)F)n3)nc3c2C(C)(c2ccc(F)cc2)C(=O)N3)CC1 (stereo not drawn) [Example 311A, 5-(4-fluorophenyl)-5-methyl-4-(4-methylpiperazin-1-yl)-2-(8-(3,3,4,4,4-pentafluorobutyl)imidazo[1,2-a]pyrazin-6-yl)-5H-pyrrolo[2,3-d]pyrimidin-6(7H)-one] | A (Category A=SBP in SHRs<20 mmHg) |  | 
111 | 14 | CC1(c2ccc(F)cn2)C(=O)Nc2nc(-c3cn4ccnc4c(CC4CCC4)n3)nc(N)c21 (stereo not drawn) [Example 115B, 4-amino-2-(8-(cyclobutylmethyl)imidazo [1,2-a]pyrazin-6-yl)-5-(5-fluoropyridin-2-yl)-5-methyl-5H-pyrrolo[2,3-d]pyrimidin-6(7H)-one] | C (Category C=SBP in SHRs>40 mmHg) |  | 
96 | 13 | CC1(c2ccccc2)C(=O)Nc2nc(-c3cn4ccnc4c(Cc4c(F)ccc(F)c4F)n3)nc(N)c21 (stereo not drawn) [Example 100B, 4-amino-5-methyl-5-phenyl-2-(8-(2,3,6-trifluorobenzyl)imidazo[1,2-a]pyrazin-6-yl)-5H-pyrrolo[2,3-d]pyrimidin-6(7H)-one] | A (Category A=SBP in SHRs<20 mmHg) |  | 
